Assay results published in patent publication US12415832B2, “B-catenin/B-cell Lymphoma 9 protein-protein interaction inhibiting peptidomimetics” (University of South Florida, priority 2019, dated 2025).
Like-named read-outs stand apart in the source and are kept apart here.

Tests used:
β-catenin = target: T1, β-catenin (Homo sapiens, UniProt P35222); assay: FP assay, binding of peptides with β-catenin (Kd); conditions: for Kd: fluorescence polarization, 50 nM FITC labeled peptide, 1×PBS
T1 sequence (P35222 1-781): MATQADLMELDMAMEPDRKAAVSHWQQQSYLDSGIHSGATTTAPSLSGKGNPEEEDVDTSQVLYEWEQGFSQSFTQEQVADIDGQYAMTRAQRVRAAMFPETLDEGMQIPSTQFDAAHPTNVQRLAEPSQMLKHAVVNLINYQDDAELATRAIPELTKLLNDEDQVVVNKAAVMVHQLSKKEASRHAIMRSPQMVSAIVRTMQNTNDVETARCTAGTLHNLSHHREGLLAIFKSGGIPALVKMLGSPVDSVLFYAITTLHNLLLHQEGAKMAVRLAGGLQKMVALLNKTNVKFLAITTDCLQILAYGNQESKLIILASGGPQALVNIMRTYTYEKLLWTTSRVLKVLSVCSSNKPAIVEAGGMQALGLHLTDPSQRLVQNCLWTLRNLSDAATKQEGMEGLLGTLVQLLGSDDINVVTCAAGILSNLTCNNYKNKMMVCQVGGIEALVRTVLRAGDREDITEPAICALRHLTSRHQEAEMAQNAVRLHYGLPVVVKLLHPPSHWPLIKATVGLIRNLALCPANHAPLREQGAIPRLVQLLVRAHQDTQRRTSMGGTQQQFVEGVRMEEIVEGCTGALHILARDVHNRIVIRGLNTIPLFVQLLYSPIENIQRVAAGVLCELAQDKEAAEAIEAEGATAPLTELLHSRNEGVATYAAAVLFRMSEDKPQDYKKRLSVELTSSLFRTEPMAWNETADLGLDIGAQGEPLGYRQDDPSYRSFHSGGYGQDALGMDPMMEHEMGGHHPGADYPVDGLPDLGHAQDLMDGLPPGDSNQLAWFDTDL

β-catenin/BCL9 PPI [1] = target: T2, β-catenin/BCL9 PPI (Homo sapiens, UniProt P35222); assay: AlphaScreen competitive inhibition assay of β-catenin/BCL9 PPI; format: binding; conditions: AlphaScreen, mean ± SD; for IC50: 5 nM biotinylated BCL9, 40 nM His6-tagged FL-β-catenin; for Ki: Ki derived from IC50 by method of Nikolovska-Coleska et al.
T2 construct: 40 nM His6-tagged FL-β-catenin
T2 sequence (P35222 1-781): T1 sequence (P35222 1-781)
Method: For the competitive inhibition assays of β-catenin/BCL9 PPI, the negative control (equivalent to 0% inhibition) refers to 5.0 nM biotinylated BCL9, 40 nM His6-tagged FL-β-catenin, and 10 μg/mL of donor and acceptor beads in a final volume of 25 μL of assay buffer, but no tested inhibitor present. The positive control (equivalent to 100% inhibition) refers to 5.0 nM biotinylated BCL9 and 10 μg/mL of donor and acceptor beads in a final volume of 25 μL of assay buffer. For the β-catenin/BCL9 assay, 5 nM biotinylated BCL9 and 40 nM His6-tagged FL-β-catenin were incubated in assay buffer at 4° C. for 30 min. Different concentrations of the tested inhibitor were added and incubated in 20 μL of assay buffer at 4° C. for another 1 h. All of the above assay plates were covered and gently mixed on an orbital shaker. The donor and acceptor beads were then added to the plates to a final concentration of 10 μg/mL in 25 μL of assay buffer. The mixture was incubated for 1 h at 4° C. before detection. The IC50 value was determined by nonlinear least-squares analysis of GraphPad Prism 5.0. The Ki values were derived from the IC50 values using a method reported by Nikolovska-Coleska et al. The assays were conducted under the conditions reported by Nikolovska-Coleska et al.'s equation for determining the Ki values. All of the experiments were performed in triplicate. The results were expressed as mean±standard deviation.

SW480 cell = format: cell-based; conditions: 72 h
Method: Colorectal cancer cell lines SW480 were seeded in 96-well plates at 5×10^3 cells/well, maintained overnight at 37° C., and incubated in the presence of inhibitors at various concentrations. Cell viability was monitored after 72 h using a freshly prepared mixture of one-part phenazine methosulfate (PMS, Sigma) solution (0.92 mg/mL) and 19 parts MTs agent (3-(4,5-dimethylthiazol-2-yl)-5-(3-carboxymethoxyphenyl)-2-(4-sulfophenyl)-2H-tetrazolium, inner salt, Promega) solution (2 mg/mL). Cells were incubated in 10 μL of this solution at 37° C. for 3 h, and A490 was measured. The effect of each compound is expressed as the concentration required to reduce A490 by 50% (IC50) relative to vehicle-treated cells. Experiments were performed in triplicate and repeated for three times.

A549 cell = format: cell-based; conditions: 72 h
β-catenin/BCL9 PPI [2] = assay: Co-immunoprecipitation in HCT116 cells; format: cell-based; conditions: 24 h
Method: β-Catenin signaling hyperactive HCT116 cancer cells at […] were treated with different concentrations of the inhibitor for 24 h. Cells were then lysed in buffer containing 50 mM Tris, pH 7.4, 150 mM NaCl, 1% Nonidet […], 2 mM EDTA, and protease inhibitors. The cell lysates were then preadsorbed to A/G plus agarose (sc-2003, Santa Cruz Biotechnology) at 4° C. for 1 h. Preadsorbed lysates were incubated with a specific primary antibody against […] (610153, BD Biosciences) overnight at 4° C. A/G plus agarose was then added to the lysate mixture and incubated for 3 h. The beads were washed four times with the lysis buffer at 4° C. The bound protein was eluted by boiling in the SDS sample buffer and loaded onto 8% SDS polyacrylamide gel for electrophoretic analysis. Separated proteins were transferred onto nitrocellulose membranes for immunoblot analysis. The antibodies against BCL9 (ab37305, Abcam), β-catenin (610153, BD Biosciences), and […] (sc-55529, Santa Cruz Biotechnology, Inc.) were incubated with the membranes, respectively. IRDye 680LT goat anti mouse IgG (827-11080, LiCOR) and IRDye 800CW goat anti rabbit IgG (926-32211, LiCOR) were used as the secondary antibodies. The images were detected by the Odyssey Infrared Imaging System (LiCOR). Experiments were performed in duplicate.

[3] = test system: Wnt/β-catenin signaling transactivation (TOPFlash); assay: Wnt-responsive TOPFlash luciferase reporter assay in SW480 cells; conditions: for IC50: read-out: TOPFlash luciferase IC50 (estimated), 24 h
Text: Wnt-specific TOPFlash/FOPFlash luciferase reporter assays were used to evaluate the effects of these compounds on β-catenin-dependent transcription. For the TOPFlash reporter construct, the firefly luciferase reporter gene was placed downstream of three wild-type Tcf binding sites. For the FOPFlash reporter construct, the firefly luciferase reporter gene was place downstream of three mutant Tcf binding sites. The high expression of firefly luciferase in TOPFlash assays was controlled by tandem Tcf binding sites. The renilla luciferase reporter construct (pCMV-RL) was used as the internal control to normalize luciferase reporter signals and eliminate systematic errors such as cell viability, transfection effect, etc.
SW480 cells were co-transfected with 60 ng of the TOPFlash or FOPFlash firefly luciferase reporter gene and 40 ng of renilla luciferase pCMV-RL normalization reporter. Cells were cultured in DMEM and 10% FBS at 37° C. for 24 h, and different concentrations of inhibitors or DMSO were added. After 24 h, the luciferase reporter activity was measured using the Dual-Glo system (E2940, Promega). Normalized luciferase activity in response to the treatment with inhibitors was compared with that obtained from the cells treated with DMSO. Experiments were performed in triplicate.

| Compound | decrease in binding affinity relative to 2 (β-catenin; Ala substitution) | Kd (β-catenin) [µM] | IC50 (β-catenin/BCL9 PPI [1]) [µM] | Ki (β-catenin/BCL9 PPI [1]) [µM] | IC50 (SW480 cell) [µM] | IC50 (A549 cell) [µM] | disruption of β-catenin/BCL9 PPI in cells (co-IP) (β-catenin/BCL9 PPI [2]) | IC50 [3] [µM] | IC50 (SW480 cell; SW480 cell, hyperactive β-catenin signaling, read-out: MTS IC50 ± SD) [µM] | TOPFlash luciferase activity, result in words [3] |
| --- | --- | --- | --- | --- | --- | --- | --- | --- | --- | --- |
| CCC(C)[C@@H](CN(CC(=O)N[C@@H](CC(C)C)CN(CC(=O)N[C@@H](CC(C)C)CN(CC(N)=O)S(=O)(=O)Cc1ccccc1)S(=O)(=O)CC(C)C)S(C)(=O)=O)NC(=O)CN(C[C@H](CCCNC(=N)N)NC(=O)CN(C[C@H](CC(C)C)NC(=O)CN(C[C@@H](NC(=O)CN(C[C@H](CC(C)C)NC(=O)CN(C[C@H](CCCNC(=N)N)NC(=O)CN(C[C@H](C)NC(=O)CN(C[C@H](CCC(=O)O)NC(C)=O)S(=O)(=O)CCN)S(C)(=O)=O)S(C)(=O)=O)S(=O)(=O)CCN)C(C)O)S(=O)(=O)CC(C)C)S(=O)(=O)CCN)S(=O)(=O)CC(C)C (some centres unmarked) [Peptide 4] | about 1.5 fold | 0.82 | 1.1 ± 0.14 | 0.98 ± 0.11 | 16.4 ± 4.4 | 43.2 ± 5.6 | disrupted the β-catenin/BCL9 PPI in a dose-dependent manner | 20.6 | – | – |
| Ac-SQEQLEHRERSLQTLRDIQRMLF-NH2 [Peptide 1, reference compound] | – | 0.97 | 1.28 | 1.13 | – | > 200 | – | – | > 200 | did not show any activity |
| CCC(C)[C@@H](CN(CC(=O)N[C@@H](CC(C)C)CN(CC(=O)N[C@@H](CC(C)C)CN(CC(N)=O)S(=O)(=O)Cc1ccccc1)S(=O)(=O)CC(C)C)S(C)(=O)=O)NC(=O)CN(C[C@H](CCCNC(=N)N)NC(=O)CN(C[C@H](CC(C)C)NC(=O)CN(C[C@@H](NC(=O)CN(C[C@H](CC(C)C)NC(=O)CN(C[C@H](CCCNC(=N)N)NC(=O)CN(C[C@H](CCCNC(=N)N)NC(=O)CN(C[C@H](CCC(=O)O)NC(C)=O)S(=O)(=O)CCN)S(C)(=O)=O)S(C)(=O)=O)S(=O)(=O)CCN)C(C)O)S(=O)(=O)CC(C)C)S(=O)(=O)CCN)S(=O)(=O)CC(C)C (some centres unmarked) [Peptide 2] | – | 0.43 | 0.74 | 0.64 | 12.5 ± 2.86 | 39.9 ± 4.75 | – | 35.4 | – | – |
